In paper PMC11288129, “Diversely evolved xibalbin variants from remipede venom inhibit potassium channels and activate PKA-II and Erk1/2 signaling” (BMC Biology, 2024):
Positions of bridges follow the written chain, without caps; N, C: chain ends. No end group written: not given here.

What was measured:
[1] = system: THP-1 cell adhesion to HMECs; test: Adhesion of THP-1 leukocytes onto TNF-activated endothelial cells; format: cell-based, human; conditions: 25 µg/ml
Description: Nitric oxide has a complex and diverse role in pain modulation. […] Finally, we analyzed the effects of xibalbins on the leukocyte adhesion to the vascular endothelium, which is a critical step in the inflammatory response of inflamed tissues. Xibalbins were analyzed for their ability to alter the adhesion of human monocytic (THP-1) cells onto a TNF-activated endothelial cell monolayer (Additional File 5: Figure S4). […] All individual values for these experiments are given in Additional File 8: Table S3.
Supplementary file 12915_2024_1955_MOESM5_ESM.jpg: Additional file 5: Figure S4. Effects of xibalbins on cytotoxicity in RAW264.7 macrophages and adhesion of leukocytes onto the vascular endothelium. (i) For the viability assay, RAW264.7 cells were treated with 25 μg/ml concentrations of xibalbins for 24 h. Cells were incubated with WST-8 and the formed formazan was detected by absorbance measurements. (ii) For the proliferation assay, HMEC-1 cells were grown in low density and treated after 24 h with the indicated peptide for 72 h. Cells were stained with crystal violet solution. The amount of DNA-bound crystal violet was detected by absorbance measurements. […] The adhesion of leukocytes onto endothelial cells was quantified by fluorescence measurements using a Tecan Infinite F200 Pro microplate reader (Tecan, Männedorf, Switzerland) (excitation: 485 nm, emission: 535 nm). […]

[2] = system: rNav1.2; test: TEVC inhibition, Nav1.2; format: cell-based, rat; conditions: 1 µM, Xenopus oocytes, ND96, 18–22 °C, mean ± SEM, n ≥ 3
From the text: For the expression of Kv channels rat Kv1.1 (GenBank accession number: NM_173095 [88, 89]), rKv1.2 (NM_012970 [90, 91]), human Kv1.3 (NM_002232 [92, 93]), rKv1.4 (NM_012971 [94, 95]), rKv1.6 (NM_023954 [96, 97]), hKv2.1 (NM_004975 [98, 99]), hKv3.1 (NM_004976 [100, 101]), rKv4.2 (NM_031739 [102, 103]), hKv10.1 (NM_172362 [104, 105]), hERG1 [Kv11.1, (NM_000238 [106, 107])], and Shaker IR [from Drosophila melanogaster, (NM_167595 [108, 109])], Nav channels [rNav1.2 (NM_012647 [42, 110]), rNav1.4 (NM_013178 [111, 112]), hNav1.5 (NM_198056 [113, 114]), mNav1.6 (NM_001077499 [115, 116]), BgNav [from Blattella germanica, (DQ466887 [117, 118])] and the auxiliary subunits rβ1 (NM_001271045 [119, 120]), hβ1 (NM_001037 [121, 122]), and TipE [from D. melanogaster, (NM_079196 [109, 123])], and Cav channels hCav3.1 [124, 125], hCav3.2 [126, 127], and hCav3.3 [128, 129] in Xenopus oocytes, the linearized plasmids were transcribed using the T7 or SP6 mMESSAGEmMACHINE transcription kit (Ambion, Austin, TX, USA). […]
Whole-cell currents of oocytes were recorded 1 to 3 days after injection. […] The current–voltage (IV) relationships were determined by 100-ms step depolarizations between − 90 and + 40 mV, using 5 mV increments. […]

## KRSCIRRFGRCDHRPNDCCYNSSCRCNLWGSNCRCQRMGLFQKWGK (disulfide 4-19, 11-24, 18-35, 26-33) [xib13]
[1]
  Prevention of Leukocyte Adh. on HMEC-1: 106.6
[2]
  inhibition of Nav1.2: 15.6 ± 2.6%
